# Columns and labels:
# Assay in all cases: KINOMEscan scanMAX
# Format in all cases: binding
# [1] = biological target: T1, BMX (Homo sapiens, UniProt P51813); settings: read-out: Percent Control
# T1 construct: purchased Eurofins Discovery (DiscoverX KINOMEscan scanMAX)
# Experimental: (§1) The kinome-wide binding assay was performed by Eurofins Discovery using the scanMAX screening platform. More information can be found on the Eurofins Discovery Web site.
# [2] = biological target: T2, CAMK2A (Homo sapiens, UniProt Q9UQM7); settings: read-out: Percent Control
# T2 construct: purchased Eurofins Discovery (DiscoverX KINOMEscan scanMAX)
# Experimental: as §1
# [3] = biological target: T3, CAMK2G (Homo sapiens, UniProt Q13555); settings: read-out: Percent Control
# T3 construct: purchased Eurofins Discovery (DiscoverX KINOMEscan scanMAX)
# Experimental: as §1
# [4] = biological target: T4, CAMKK2 (Homo sapiens, UniProt Q96RR4); settings: read-out: Percent Control
# T4 construct: purchased Eurofins Discovery (DiscoverX KINOMEscan scanMAX)
# Experimental: as §1
# [5] = biological target: T5, CLK3 (Homo sapiens, UniProt P49761); settings: read-out: Percent Control
# T5 construct: purchased Eurofins Discovery (DiscoverX KINOMEscan scanMAX)
# Experimental: as §1
# [6] = biological target: T6, EPHA7 (Homo sapiens, UniProt Q15375); settings: read-out: Percent Control
# T6 construct: purchased Eurofins Discovery (DiscoverX KINOMEscan scanMAX)
# Experimental: as §1
# [7] = biological target: T7, ERBB3 (Homo sapiens, UniProt P21860); settings: read-out: Percent Control
# T7 construct: purchased Eurofins Discovery (DiscoverX KINOMEscan scanMAX)
# Experimental: as §1
# [8] = biological target: T8, FGFR3(G697C) (Homo sapiens, UniProt P22607, G697C); settings: read-out: Percent Control
# T8 construct: purchased Eurofins Discovery (DiscoverX KINOMEscan scanMAX)
# Experimental: as §1
# [9] = tested on: FLT3(ITD,D835V)
# Experimental: as §1
# [10] = biological target: T9, FLT3(N841I) (Homo sapiens, UniProt P36888, N841I); settings: read-out: Percent Control
# T9 construct: purchased Eurofins Discovery (DiscoverX KINOMEscan scanMAX)
# Experimental: as §1
# [11] = biological target: T10, GCN2(Kin.Dom.2,S808G) (Homo sapiens, UniProt Q9P2K8, S808G); settings: read-out: Percent Control
# T10 construct: GCN2(Kin.Dom.2,S808G); purchased Eurofins Discovery (DiscoverX KINOMEscan scanMAX)
# Experimental: as §1
# [12] = biological target: T11, GRK3 (Homo sapiens, UniProt P35626); settings: read-out: Percent Control
# T11 construct: purchased Eurofins Discovery (DiscoverX KINOMEscan scanMAX)
# Experimental: as §1
# [13] = biological target: T12, IRAK4 (Homo sapiens, UniProt Q9NWZ3); settings: read-out: Percent Control
# T12 construct: purchased Eurofins Discovery (DiscoverX KINOMEscan scanMAX)
# Experimental: as §1
# [14] = biological target: T13, KIT(L576P) (Homo sapiens, UniProt P10721, L576P); settings: read-out: Percent Control
# T13 construct: purchased Eurofins Discovery (DiscoverX KINOMEscan scanMAX)
# Experimental: as §1
# [15] = biological target: T14, LATS1 (Homo sapiens, UniProt O95835); settings: read-out: Percent Control
# T14 construct: purchased Eurofins Discovery (DiscoverX KINOMEscan scanMAX)
# Experimental: as §1
# [16] = biological target: T15, LIMK2 (Homo sapiens, UniProt P53671); settings: read-out: Percent Control
# T15 construct: purchased Eurofins Discovery (DiscoverX KINOMEscan scanMAX)
# Experimental: as §1
# [17] = biological target: T16, MAP3K1 (Homo sapiens, UniProt Q13233); settings: read-out: Percent Control
# T16 construct: purchased Eurofins Discovery (DiscoverX KINOMEscan scanMAX)
# Experimental: as §1
# [18] = biological target: T17, MKNK2 (Homo sapiens, UniProt Q9HBH9); settings: read-out: Percent Control
# T17 construct: purchased Eurofins Discovery (DiscoverX KINOMEscan scanMAX)
# Experimental: as §1
# [19] = biological target: T18, MST4 (Homo sapiens, UniProt Q9P289); settings: read-out: Percent Control
# T18 construct: purchased Eurofins Discovery (DiscoverX KINOMEscan scanMAX)
# Experimental: as §1
# [20] = biological target: T19, PIK3CA (Homo sapiens, UniProt P42336); settings: read-out: Percent Control
# T19 construct: purchased Eurofins Discovery (DiscoverX KINOMEscan scanMAX)
# Experimental: as §1
# [21] = biological target: T20, PIK3CA(E542K) (Homo sapiens, UniProt P42336, E542K); settings: read-out: Percent Control
# T20 construct: purchased Eurofins Discovery (DiscoverX KINOMEscan scanMAX)
# Experimental: as §1
# [22] = biological target: T21, PIK3CA(E545A) (Homo sapiens, UniProt P42336, E545A); settings: read-out: Percent Control
# T21 construct: purchased Eurofins Discovery (DiscoverX KINOMEscan scanMAX)
# Experimental: as §1
# [23] = biological target: T22, PIK3CD (Homo sapiens, UniProt O00329); settings: read-out: Percent Control
# T22 construct: purchased Eurofins Discovery (DiscoverX KINOMEscan scanMAX)
# Experimental: as §1
# [24] = biological target: T23, PIK3CG (Homo sapiens, UniProt P48736); settings: read-out: Percent Control
# T23 construct: purchased Eurofins Discovery (DiscoverX KINOMEscan scanMAX)
# Experimental: as §1
# [25] = biological target: T24, PIP5K2B (Homo sapiens, UniProt P78356); settings: read-out: Percent Control
# T24 construct: purchased Eurofins Discovery (DiscoverX KINOMEscan scanMAX)
# Experimental: as §1
# [26] = biological target: T25, PKNB(M.tuberculosis) (Mycobacterium tuberculosis, UniProt P9WI81); settings: read-out: Percent Control
# T25 construct: purchased Eurofins Discovery (DiscoverX KINOMEscan scanMAX)
# Experimental: as §1
# [27] = biological target: T26, RIPK4 (Homo sapiens, UniProt P57078); settings: read-out: Percent Control
# T26 construct: purchased Eurofins Discovery (DiscoverX KINOMEscan scanMAX)
# Experimental: as §1
# [28] = biological target: T27, RPS6KA5(Kin.Dom.2-C-terminal) (Homo sapiens, UniProt O75582); settings: read-out: Percent Control
# T27 construct: RPS6KA5(Kin.Dom.2-C-terminal); purchased Eurofins Discovery (DiscoverX KINOMEscan scanMAX)
# Experimental: as §1
# [29] = biological target: T28, SBK1 (Homo sapiens, UniProt Q52WX2); settings: read-out: Percent Control
# T28 construct: purchased Eurofins Discovery (DiscoverX KINOMEscan scanMAX)
# Experimental: as §1
# [30] = biological target: T29, SGK3 (Homo sapiens, UniProt Q96BR1); settings: read-out: Percent Control
# T29 construct: purchased Eurofins Discovery (DiscoverX KINOMEscan scanMAX)
# Experimental: as §1
# [31] = biological target: T30, TNK2 (Homo sapiens, UniProt Q07912); settings: read-out: Percent Control
# T30 construct: purchased Eurofins Discovery (DiscoverX KINOMEscan scanMAX)
# Experimental: as §1
# [32] = biological target: T31, TYK2(JH2domain-pseudokinase) (Homo sapiens, UniProt P29597); settings: read-out: Percent Control
# T31 construct: TYK2(JH2domain-pseudokinase); purchased Eurofins Discovery (DiscoverX KINOMEscan scanMAX)
# Experimental: as §1
# T14 sequence (O95835 whole entry): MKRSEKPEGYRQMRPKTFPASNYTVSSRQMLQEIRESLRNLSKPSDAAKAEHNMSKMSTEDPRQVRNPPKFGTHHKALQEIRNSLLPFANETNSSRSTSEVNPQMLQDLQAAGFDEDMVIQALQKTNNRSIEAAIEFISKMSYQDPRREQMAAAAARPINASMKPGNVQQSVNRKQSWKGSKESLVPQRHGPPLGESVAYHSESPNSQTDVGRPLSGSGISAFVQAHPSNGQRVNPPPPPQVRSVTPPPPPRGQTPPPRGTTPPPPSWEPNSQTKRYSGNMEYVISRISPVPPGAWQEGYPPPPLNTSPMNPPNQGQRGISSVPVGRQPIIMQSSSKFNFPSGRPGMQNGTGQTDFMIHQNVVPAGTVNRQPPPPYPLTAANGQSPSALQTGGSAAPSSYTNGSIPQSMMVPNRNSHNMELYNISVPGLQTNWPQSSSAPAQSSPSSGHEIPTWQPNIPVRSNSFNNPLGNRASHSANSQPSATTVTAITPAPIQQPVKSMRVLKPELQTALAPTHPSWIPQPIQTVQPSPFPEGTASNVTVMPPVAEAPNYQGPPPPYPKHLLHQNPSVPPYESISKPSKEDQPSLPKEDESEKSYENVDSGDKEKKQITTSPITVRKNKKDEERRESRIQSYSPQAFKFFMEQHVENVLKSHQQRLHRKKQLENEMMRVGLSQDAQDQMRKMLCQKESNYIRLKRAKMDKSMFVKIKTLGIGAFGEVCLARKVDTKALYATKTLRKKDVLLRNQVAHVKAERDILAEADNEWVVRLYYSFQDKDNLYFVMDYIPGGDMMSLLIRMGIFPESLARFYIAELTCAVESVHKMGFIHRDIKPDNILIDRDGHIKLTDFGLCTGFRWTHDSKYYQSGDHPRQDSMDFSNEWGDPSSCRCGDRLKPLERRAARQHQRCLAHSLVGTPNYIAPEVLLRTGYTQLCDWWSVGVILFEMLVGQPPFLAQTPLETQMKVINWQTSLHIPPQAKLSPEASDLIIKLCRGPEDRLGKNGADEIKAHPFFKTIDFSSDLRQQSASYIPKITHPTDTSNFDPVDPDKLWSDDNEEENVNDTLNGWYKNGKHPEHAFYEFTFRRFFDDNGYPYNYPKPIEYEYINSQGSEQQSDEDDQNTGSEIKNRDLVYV
# T17 sequence (Q9HBH9 whole entry): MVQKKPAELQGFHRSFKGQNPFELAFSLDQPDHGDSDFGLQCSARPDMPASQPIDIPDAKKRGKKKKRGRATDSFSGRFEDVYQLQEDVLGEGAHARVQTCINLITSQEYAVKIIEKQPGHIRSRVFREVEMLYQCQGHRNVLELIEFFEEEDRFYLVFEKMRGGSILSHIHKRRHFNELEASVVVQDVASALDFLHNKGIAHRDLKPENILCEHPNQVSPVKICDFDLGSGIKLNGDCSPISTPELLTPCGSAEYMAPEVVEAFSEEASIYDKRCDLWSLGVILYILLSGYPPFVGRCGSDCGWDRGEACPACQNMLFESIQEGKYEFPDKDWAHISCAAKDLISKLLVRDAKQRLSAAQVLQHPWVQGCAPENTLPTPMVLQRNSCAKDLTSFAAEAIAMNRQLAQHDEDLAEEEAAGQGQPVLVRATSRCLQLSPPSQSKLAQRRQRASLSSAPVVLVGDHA
# T20 sequence (P42336 whole entry E542K): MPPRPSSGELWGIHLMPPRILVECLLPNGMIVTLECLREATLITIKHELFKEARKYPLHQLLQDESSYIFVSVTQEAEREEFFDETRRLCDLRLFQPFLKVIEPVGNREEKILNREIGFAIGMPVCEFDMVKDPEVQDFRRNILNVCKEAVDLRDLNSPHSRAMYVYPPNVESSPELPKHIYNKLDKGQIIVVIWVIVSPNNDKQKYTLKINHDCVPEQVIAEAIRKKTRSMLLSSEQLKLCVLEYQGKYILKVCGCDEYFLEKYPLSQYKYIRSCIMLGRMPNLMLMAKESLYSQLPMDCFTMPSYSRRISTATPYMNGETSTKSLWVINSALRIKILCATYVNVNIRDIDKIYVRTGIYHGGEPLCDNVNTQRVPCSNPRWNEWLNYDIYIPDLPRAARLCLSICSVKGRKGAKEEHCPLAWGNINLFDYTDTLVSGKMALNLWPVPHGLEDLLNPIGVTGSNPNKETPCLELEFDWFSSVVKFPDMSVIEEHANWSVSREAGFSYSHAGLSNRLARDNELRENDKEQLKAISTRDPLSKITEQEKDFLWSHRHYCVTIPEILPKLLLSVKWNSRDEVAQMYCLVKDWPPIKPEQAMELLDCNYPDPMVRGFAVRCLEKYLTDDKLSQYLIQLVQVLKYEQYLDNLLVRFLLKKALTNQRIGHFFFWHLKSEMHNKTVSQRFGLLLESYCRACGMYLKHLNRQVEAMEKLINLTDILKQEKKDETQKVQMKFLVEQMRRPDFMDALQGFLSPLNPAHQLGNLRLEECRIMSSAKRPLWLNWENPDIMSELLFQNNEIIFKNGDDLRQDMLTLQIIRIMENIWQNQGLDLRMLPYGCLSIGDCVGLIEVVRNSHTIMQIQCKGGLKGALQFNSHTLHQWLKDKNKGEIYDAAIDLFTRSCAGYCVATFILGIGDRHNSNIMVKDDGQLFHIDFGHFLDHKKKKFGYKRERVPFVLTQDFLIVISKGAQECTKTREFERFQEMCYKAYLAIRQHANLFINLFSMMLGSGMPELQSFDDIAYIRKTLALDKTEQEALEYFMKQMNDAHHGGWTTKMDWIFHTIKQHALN
# T25 sequence (P9WI81 whole entry): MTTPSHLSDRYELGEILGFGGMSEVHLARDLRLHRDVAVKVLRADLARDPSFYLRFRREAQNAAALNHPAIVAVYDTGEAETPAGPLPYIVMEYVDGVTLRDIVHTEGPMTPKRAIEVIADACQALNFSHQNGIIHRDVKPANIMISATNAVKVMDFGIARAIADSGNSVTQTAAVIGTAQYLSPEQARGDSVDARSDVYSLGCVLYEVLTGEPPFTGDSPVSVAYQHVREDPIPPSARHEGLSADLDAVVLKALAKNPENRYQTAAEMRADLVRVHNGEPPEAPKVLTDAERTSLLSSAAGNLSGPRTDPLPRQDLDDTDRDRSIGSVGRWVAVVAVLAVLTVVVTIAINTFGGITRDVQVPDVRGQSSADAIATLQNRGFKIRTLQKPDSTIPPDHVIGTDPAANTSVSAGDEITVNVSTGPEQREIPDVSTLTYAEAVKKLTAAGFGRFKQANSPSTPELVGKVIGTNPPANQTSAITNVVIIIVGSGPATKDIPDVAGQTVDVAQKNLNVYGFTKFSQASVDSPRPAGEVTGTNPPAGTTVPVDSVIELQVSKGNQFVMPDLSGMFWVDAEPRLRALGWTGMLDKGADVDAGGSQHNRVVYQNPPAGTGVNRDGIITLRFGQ
# T31 sequence (P29597 556-888 limits assumed): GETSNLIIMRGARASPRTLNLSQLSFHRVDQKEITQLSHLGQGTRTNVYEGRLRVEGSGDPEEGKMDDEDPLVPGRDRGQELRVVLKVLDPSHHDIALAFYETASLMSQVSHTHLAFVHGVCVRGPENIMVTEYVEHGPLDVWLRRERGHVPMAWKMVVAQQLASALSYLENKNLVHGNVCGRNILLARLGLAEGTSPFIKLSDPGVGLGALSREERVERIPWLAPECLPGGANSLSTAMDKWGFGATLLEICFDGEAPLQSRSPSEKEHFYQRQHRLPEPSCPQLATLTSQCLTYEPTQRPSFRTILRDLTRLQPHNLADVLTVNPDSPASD
# T26 sequence (P57078 whole entry): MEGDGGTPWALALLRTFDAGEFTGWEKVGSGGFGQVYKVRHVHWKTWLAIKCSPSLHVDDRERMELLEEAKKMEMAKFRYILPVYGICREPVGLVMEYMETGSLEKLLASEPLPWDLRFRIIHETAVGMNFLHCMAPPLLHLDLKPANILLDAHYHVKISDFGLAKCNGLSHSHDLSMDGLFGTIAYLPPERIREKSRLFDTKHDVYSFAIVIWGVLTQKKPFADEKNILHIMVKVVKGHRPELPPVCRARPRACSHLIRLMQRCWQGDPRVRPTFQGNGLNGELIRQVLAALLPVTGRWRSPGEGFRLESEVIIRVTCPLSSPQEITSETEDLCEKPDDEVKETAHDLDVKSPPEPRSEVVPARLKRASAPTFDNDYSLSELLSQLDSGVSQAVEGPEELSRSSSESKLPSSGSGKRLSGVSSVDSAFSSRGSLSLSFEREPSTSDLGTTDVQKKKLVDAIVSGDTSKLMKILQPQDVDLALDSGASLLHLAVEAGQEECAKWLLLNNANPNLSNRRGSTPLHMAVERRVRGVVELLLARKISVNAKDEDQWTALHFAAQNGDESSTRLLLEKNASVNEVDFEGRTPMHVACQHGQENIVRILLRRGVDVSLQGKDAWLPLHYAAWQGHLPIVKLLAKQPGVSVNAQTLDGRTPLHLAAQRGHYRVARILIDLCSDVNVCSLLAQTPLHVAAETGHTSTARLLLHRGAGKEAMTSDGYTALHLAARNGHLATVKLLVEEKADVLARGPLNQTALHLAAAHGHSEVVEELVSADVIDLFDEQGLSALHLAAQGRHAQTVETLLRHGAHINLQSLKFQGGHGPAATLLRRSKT
# T19 sequence (P42336 whole entry): as the sequence (P42336 whole entry E542K) above, with K542E counted along it
# T27 sequence (O75582 388-802 limits assumed): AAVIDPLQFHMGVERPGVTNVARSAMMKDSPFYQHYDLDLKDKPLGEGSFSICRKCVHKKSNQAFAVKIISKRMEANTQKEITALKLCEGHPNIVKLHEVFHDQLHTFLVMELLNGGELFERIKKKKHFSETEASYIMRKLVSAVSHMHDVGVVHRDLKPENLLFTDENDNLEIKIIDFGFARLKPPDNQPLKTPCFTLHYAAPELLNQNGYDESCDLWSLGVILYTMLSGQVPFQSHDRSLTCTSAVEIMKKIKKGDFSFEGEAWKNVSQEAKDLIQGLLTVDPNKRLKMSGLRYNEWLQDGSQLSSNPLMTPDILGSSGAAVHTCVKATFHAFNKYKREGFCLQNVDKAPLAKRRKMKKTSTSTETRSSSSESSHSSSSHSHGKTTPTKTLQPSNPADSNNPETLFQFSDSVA
# T21 sequence (P42336 whole entry E545A): as the sequence (P42336 whole entry E542K) above, with K542E, E545A counted along it
compound,measurement,setting,value
Cc1cc(Nc2ccc(F)c(CC3(C(=O)N4CCC(F)(CN5CCN(c6ccc(N7CCC(=O)NC7=O)cn6)CC5)CC4)CCN(Cc4cccc(Cl)c4F)CC3)n2)n[nH]1 [SK5527],remaining binding at 0.1 µM,[1]; 100 nM,100%
same,remaining binding at 1 µM,[1]; 1000 nM,73%
same,remaining binding at 0.1 µM,[2]; 100 nM,98%
same,remaining binding at 1 µM,[2]; 1000 nM,100%
same,remaining binding at 0.1 µM,[3]; 100 nM,100%
same,remaining binding at 1 µM,[3]; 1000 nM,100%
same,remaining binding at 0.1 µM,[4]; 100 nM,100%
same,remaining binding at 1 µM,[4]; 1000 nM,100%
same,remaining binding at 0.1 µM,[5]; 100 nM,100%
same,remaining binding at 1 µM,[5]; 1000 nM,100%
same,remaining binding at 0.1 µM,[6]; 100 nM,100%
same,remaining binding at 1 µM,[6]; 1000 nM,82%
same,remaining binding at 0.1 µM,[7]; 100 nM,100%
same,remaining binding at 1 µM,[7]; 1000 nM,100%
same,remaining binding at 0.1 µM,[8]; 100 nM,75%
same,remaining binding at 1 µM,[8]; 1000 nM,67%
same,Percent Control,[9]; 100 nM,79%
same,Percent Control,[9]; 1000 nM,59%
same,remaining binding at 0.1 µM,[10]; 100 nM,83%
same,remaining binding at 1 µM,[10]; 1000 nM,76%
same,remaining binding at 0.1 µM,[11]; 100 nM,98%
same,remaining binding at 1 µM,[11]; 1000 nM,100%
same,remaining binding at 0.1 µM,[12]; 100 nM,100%
same,remaining binding at 1 µM,[12]; 1000 nM,100%
same,remaining binding at 0.1 µM,[13]; 100 nM,87%
same,remaining binding at 1 µM,[13]; 1000 nM,70%
same,remaining binding at 0.1 µM,[14]; 100 nM,100%
same,remaining binding at 1 µM,[14]; 1000 nM,100%
same,remaining binding at 0.1 µM,[15]; 100 nM,100%
same,remaining binding at 1 µM,[15]; 1000 nM,100%
same,remaining binding at 0.1 µM,[16]; 100 nM,100%
same,remaining binding at 1 µM,[16]; 1000 nM,98%
same,remaining binding at 0.1 µM,[17]; 100 nM,93%
same,remaining binding at 1 µM,[17]; 1000 nM,60%
same,remaining binding at 0.1 µM,[18]; 100 nM,59%
same,remaining binding at 1 µM,[18]; 1000 nM,68%
same,remaining binding at 0.1 µM,[19]; 100 nM,95%
same,remaining binding at 1 µM,[19]; 1000 nM,86%
same,remaining binding at 0.1 µM,[20]; 100 nM,94%
same,remaining binding at 1 µM,[20]; 1000 nM,90%
same,remaining binding at 0.1 µM,[21]; 100 nM,81%
same,remaining binding at 1 µM,[21]; 1000 nM,68%
same,remaining binding at 0.1 µM,[22]; 100 nM,72%
same,remaining binding at 1 µM,[22]; 1000 nM,100%
same,remaining binding at 0.1 µM,[23]; 100 nM,69%
same,remaining binding at 1 µM,[23]; 1000 nM,87%
same,remaining binding at 0.1 µM,[24]; 100 nM,91%
same,remaining binding at 1 µM,[24]; 1000 nM,94%
same,remaining binding at 0.1 µM,[25]; 100 nM,100%
same,remaining binding at 1 µM,[25]; 1000 nM,100%
same,remaining binding at 0.1 µM,[26]; 100 nM,93%
same,remaining binding at 1 µM,[26]; 1000 nM,94%
same,remaining binding at 0.1 µM,[27]; 100 nM,67%
same,remaining binding at 1 µM,[27]; 1000 nM,46%
same,remaining binding at 0.1 µM,[28]; 100 nM,100%
same,remaining binding at 1 µM,[28]; 1000 nM,96%
same,remaining binding at 0.1 µM,[29]; 100 nM,86%
same,remaining binding at 1 µM,[29]; 1000 nM,64%
same,remaining binding at 0.1 µM,[30]; 100 nM,100%
same,remaining binding at 1 µM,[30]; 1000 nM,88%
same,remaining binding at 0.1 µM,[31]; 100 nM,62%
same,remaining binding at 1 µM,[31]; 1000 nM,25%
same,remaining binding at 0.1 µM,[32]; 100 nM,51%
same,remaining binding at 1 µM,[32]; 1000 nM,51%
